# From US4395405A, “Alkyl-ketohexopyranoside derivatives and method of use” (Hisamitsu Pharmaceutical Co., Inc., priority 1979, dated 1983)
# Key:
# [1] = Acute poisoning test on mice; details: mouse, in vivo, three weeks
# Procedure: (§1) Each of the test compounds was suspended in a physiological solution of sodium chloride containing 0.5% of tragacanth gum to obtain a test suspension. The test suspensions so obtained were administered to rats and mice in various ways. LD50 was calculated from test animals which died in three weeks after the start of the test.
# [2] = tested on: IgE antibodies; assay: Formation of homocytotropic antibodies in rats, PCA (passive cutaneous anaphylaxis) reaction; assay type: in vivo, rats of wistar strain; details: Table 3 right half, hypodermic administration; serum 8 days after sensitization; control 269.2 (218.8-331.1)
# Procedure: (§2) Effects on the formation of homocytotropic antibodies in rats
# (§3) An experiment was carried out in accordance with the Tada and Okumura's method (J. Immunol., Vol. 106, p 1002, 1971).
# (§4) Groups each consisting of 8-9 rats of wistar strain were used in this experiment.
# (§5) As shown in Tables 2-5, to the four legs of the rats were injected 1 mg of dinitrophenylated extract of ascaris suum (DNP-As) as protein and 10^10 cells of vaccinum pertussis (B. Pertussis) for sensitization, after which the compounds of this invention were administered to the injected rats for 5 days. Eight to nine days after the sensitization, bloodletting was effected on these rats to collect their serum for estimating the amount of antibodies formed using passive cutaneous anaphylaxis (PCA) reactions and phytohemaglutinin (PHA) reactions.
# (1) Estimation of the amount of antibodies by PCA reaction:
# The collected serum was diluted in various concentrations and intradermally injected to other rats. Forty-eight (48) hours after the injection, 2 mg of DNP-As as protein and 0.5 ml of a 1% Evans Blue were intravenously injected into these rats to determine the dilution of the serum which induced the minimum extravasted dye. It should be noted that the symbols "*" and "**" in the following Tables indicate significant differences at risks of 5% and 1%, respectively. […]
# [3] = tested on: IgG and IgM; assay: Amount of antibodies formed in mice, PHA reaction; assay type: in vivo, mice (BALB/c strain), female; details: 100 mg/Kg/day for 5 days
# Procedure: The collected serum was diluted in various concentrations and incubated with sheep red blood cells coupled with DNP-As using bis-diazoated benzydine to determine the dilution of the serum which induced the minimum hemaglutination.
# (§6) Effects on the formation of homocytotropic antibodies in mice
# (§7) Groups each consisting of 5 female mice (BALB/c strain) were used in this experiment. The mice were sensitized with 10 μg of DNP-As as protein and 3 mg of Al(OH)3, after which the test compound was administered to the sensitized mice for 5 days (at a dose of 100 mg/Kg/day). After the sensitization, a sample of serum was collected from the mice and treated in the same manner as in Experiment 1 to determine the amount of antibodies formed. […]
# [4] = Acute poisoning test on rats; details: rat, in vivo, three weeks
# Procedure: as §1
# [5] = tested on: IgG and IgM; assay: Amount of antibodies formed in rats, PHA (phytohemaglutinin) reaction; assay type: in vivo, rats of wistar strain; details: Table 5 right half, hypodermic administration; serum 8 days after sensitization; control 3235.9 (2454.7-4265.8)
# Procedure: as §2, §3, §4, §5
# (2) Estimation of the amount of antibodies by PHA reaction:
# The collected serum was diluted in various concentrations and incubated with sheep red blood cells coupled with DNP-As using bis-diazoated benzydine to determine the dilution of the serum which induced the minimum hemaglutination. […]
# [6] = tested on: IgE antibodies; assay: Formation of homocytotropic antibodies in mice, PCA reaction; assay type: in vivo, mice (BALB/c strain), female; details: 100 mg/Kg/day for 5 days
# Procedure: The collected serum was diluted in various concentrations and intradermally injected to other rats. Forty-eight (48) hours after the injection, 2 mg of DNP-As as protein and 0.5 ml of a 1% Evans Blue were intravenously injected into these rats to determine the dilution of the serum which induced the minimum extravasted dye. It should be noted that the symbols "*" and "**" in the following Tables indicate significant differences at risks of 5% and 1%, respectively.
# as §6, §7
structure (smiles),measurement,setting,value
"CC(C)COC1(CO)OCC(O)C(O)C1O [Compound No. 10, isobutyl-α-L-sorbopyranoside]",LD50 at 504 h,"[1]; ip, abdominally, female",500 to 1000 mg/kg
same,LD50 at 504 h,"[1]; ip, abdominally, male",500 to 1000 mg/kg
same,LD50 at 504 h,"[1]; iv, intravenously, female",1000 to 2000 mg/kg
same,LD50 at 504 h,"[1]; iv, intravenously, male",1000 to 2000 mg/kg
same,LD50 at 504 h,"[1]; po, orally, female",2000 to 5000 mg/kg
same,LD50 at 504 h,"[1]; po, orally, male",2000 to 5000 mg/kg
same,LD50 at 504 h,"[1]; sc, hypodermically, female",~2000 mg/kg
same,LD50 at 504 h,"[1]; sc, hypodermically, male",~2000 mg/kg
same,PCA of rat: dilution of the serum which induced the minimum extravasted dye,[2],177.8 (134.9-234.4)
same,PHA of mice (serum dilution),"[3]; Table 10, oral, serum 10 days after, control 125.9 (95.5-166.0)",109.7
same,PHA of mice (serum dilution),"[3]; Table 11, hypodermic, serum 9 days after, control 380.2 (269.2-537.0)",154.9 (125.9-190.6)
same,PHA of mice (serum dilution),"[3]; Table 11, hypodermic, serum 10 days after, control 109.7 (95.5-125.9)",102.3 (83.2-125.9)
same,PHA of mice (serum dilution),"[3]; Table 11, hypodermic, serum 37 days after, control 1071.5 (871.0-1318.3)",1148.2 (933.3-1412.5)
same,LD50 at 504 h,"[4]; ip, abdominally, female",~2000 mg/kg
same,LD50 at 504 h,"[4]; ip, abdominally, male",~2000 mg/kg
same,LD50 at 504 h,"[4]; iv, intravenously, female",1000 to 2000 mg/kg
same,LD50 at 504 h,"[4]; iv, intravenously, male",1000 to 2000 mg/kg
same,LD50 at 504 h,"[4]; po, orally, female",> 5000 mg/kg
same,LD50 at 504 h,"[4]; po, orally, male",> 5000 mg/kg
same,LD50 at 504 h,"[4]; sc, hypodermically, female",> 5000 mg/kg
same,LD50 at 504 h,"[4]; sc, hypodermically, male",> 5000 mg/kg
same,PHA of rat: dilution of the serum which induced the minimum hemaglutination,[5],5248.1 (3715.4-7413.1)
same,PCA of mice (serum dilution),"[6]; Table 7, oral, serum 10 days after sensitization, control 537.0 (436.5-660.7)",501.2
same,PCA of mice (serum dilution),"[6]; Table 8, hypodermic, serum 9 days after, control 708.0 (575.4-871.0)",537.0
same,PCA of mice (serum dilution),"[6]; Table 8, hypodermic, serum 10 days after, control 537.0 (380.2-758.6)",708.0
same,PCA of mice (serum dilution),"[6]; Table 8, hypodermic, serum 37 days after, control 2818.4 (1862.1-4265.8)",1513.6
